Assay results published in US10874103B2, “Antibacterial composition comprising an acetal or a long-chain alkyl hexitane ether” (TEREOS STARCH & SWEETENERS BELGIUM, priority 2014, dated 2020).

Assays:
Format in all cases: cell-based
[1] = system: L. monocytogenes (CIP 103575), E. faecalis (ATCC® 29212™) and S. aureus (ATCC® 292213™); test: MBC, statement for all Gram-positive strains tested together; conditions: all three strains
Experimental: To determine whether the agents tested are bactericidal, the minimum bactericidal concentration (MBC) is determined. The MBC corresponds to the concentration leaving a number of bacterial survivors of <4 log. For this, a bacterial count is run from clear wells or without bacterial residue (C≤MIC). To do this, a dilution to 1/100 was conducted with the two wells with the same concentration before seeding on a blood agar using the Spiral technique. After 24 h of incubation at 37° C., the visual count allowed determination of the minimum concentration from which there is no bacterial growth.
To determine the bactericidal effect of compounds presenting bacteriostatic properties, the wells no longer presenting turbidity were reseeded on agar.

[2] = system: Enterococci: E. faecium strains; test: MIC microdilution on wider panel (Example 8), E. faecium strains
Experimental: The cultures studied, freshly isolated (after incubation on a blood agar at 37° C. for 18 h), are taken up in sterile water (10 mL) until a 0.5 McFarland (Mc) suspension i.e. at 1 to 2×10^8 CFU (bacteria)/cm^3 is obtained. The bacterial suspension was then diluted to obtain a final concentration of 1×10^6 CFU/cm^3.
Each well contains an identical quantity of Mueller-Hinton medium (a rich medium for bacterial culture) and bacteria with final 0.5×10^6 CFU/cm^3.
The test compounds of interest are solubilized in ethanol or DMSO at 25 mg/mL before being diluted to different concentrations two by two. On the multiwell plate, a first series has been planned comprising the culture medium without the test compound of interest. It corresponds to the growth control (control well). These controls serve as reference for comparing bacterial growth with that of the subsequent wells comprising different concentrations of the test compound of interest. The second series of wells comprises the mother solution for the test compound of interest for a concentration in the wells of 256 mg (7 mM). Each series of wells was diluted two by two until the last series for a final concentration of 0.25 mg/L (0.0007 mM). Each concentration is duplicated in the same plate. The plate is incubated for 18 h at 37° C. […] If there is antibacterial activity, the bacterial growth is inhibited, which means that no turbidity or bacterial residue is present.
The minimum inhibitory concentrations (MIC) are tested on Gram-positive bacterial strains according to the recommendations of the “Clinical Laboratory Standards Institute” (Clinical-Laboratory-Standards-Institute, 6th ed. Approved standard M100-S17. CLSI, Wayne, Pa., 2007). The clinical strains have been isolated in the Hospice de Lyon.
Enterococci: E. faecium (CIP 103510), clinical strains of Enterococci E. faecium: Van A 0151850763 (hereinafter Van A); strain 015 205731401 (hereinafter 1401), […]

[3] = system: Listeria: L. monocytogenes strains; test: MIC microdilution on wider panel (Example 8), Listeria strains
Experimental: The cultures studied, freshly isolated (after incubation on a blood agar at 37° C. for 18 h), are taken up in sterile water (10 mL) until a 0.5 McFarland (Mc) suspension i.e. at 1 to 2×10^8 CFU (bacteria)/cm^3 is obtained. The bacterial suspension was then diluted to obtain a final concentration of 1×10^6 CFU/cm^3. Each well contains an identical quantity of Mueller-Hinton medium (a rich medium for bacterial culture) and bacteria with final 0.5×10^6 CFU/cm^3. The test compounds of interest are solubilized in ethanol or DMSO at 25 mg/mL before being diluted to different concentrations two by two. On the multiwell plate, a first series has been planned comprising the culture medium without the test compound of interest. It corresponds to the growth control (control well). These controls serve as reference for comparing bacterial growth with that of the subsequent wells comprising different concentrations of the test compound of interest. The second series of wells comprises the mother solution for the test compound of interest for a concentration in the wells of 256 mg (7 mM). Each series of wells was diluted two by two until the last series for a final concentration of 0.25 mg/L (0.0007 mM). Each concentration is duplicated in the same plate. The plate is incubated for 18 h at 37° C. […] If there is antibacterial activity, the bacterial growth is inhibited, which means that no turbidity or bacterial residue is present. The minimum inhibitory concentrations (MIC) are tested on Gram-positive bacterial strains according to the recommendations of the “Clinical Laboratory Standards Institute” (Clinical-Laboratory-Standards-Institute, 6th ed. Approved standard M100-S17. CLSI, Wayne, Pa., 2007). The clinical strains have been isolated in the Hospice de Lyon. Listeria: L. monocytogenes (CIP 103575), clinical strain isolated from hemoculture (015189074801, LM1), a strain isolated from cerebrospinal liquid (015170199001, LM2), clinical strains isolated from hemoculture (015181840701, LM3). The cultures studied, freshly isolated (after incubation on a blood agar at 37° C. for 18 h), are taken up in sterile water (10 mL) until a 0.5 McFarland (Mc) suspension i.e. at 10^8 CFU (bacteria)/cm^3 is obtained. The bacterial suspension was then diluted to obtain a final concentration of 10^6 CFU/cm^3.

## Dodecyl-1,4-d-sorbitan [Example 2e]
[1]
  MBC for all the Gram-positive strains tested: 120 µM
[2]; E. faecium CIP 103510
  Minimum inhibitory concentration (MIC) CIP 103510: 16 µg/mL
[2]; clinical E. faecium Van A 0151850763
  Minimum inhibitory concentration (MIC) Van A: 16 µg/mL
[2]; clinical E. faecium strain 015 205731401
  Minimum inhibitory concentration (MIC) 1401: 8 µg/mL
[3]; L. monocytogenes CIP 103575
  Minimum inhibitory concentration (MIC) CIP 103575: 32 µg/mL
[3]; clinical strain from hemoculture 015181840701
  Minimum inhibitory concentration (MIC) LM3: 32 µg/mL
[3]; clinical strain from hemoculture 015189074801
  Minimum inhibitory concentration (MIC) LM1: 16 µg/mL
[3]; strain from cerebrospinal liquid 015170199001
  Minimum inhibitory concentration (MIC) LM2: 32 µg/mL
